Source: US4468511A, “C-20- And C-23-Modified macrolide derivatives” (Eli Lilly and Company, priority 1983, dated 1984)
Converted amounts (≈) assume the structure as drawn. Read-outs that look alike come from different tables or passages of the source.

Experiments:
[1] = test system: Streptococcus pyogenes C203; experiment: Protection of mice experimentally infected with S. pyogenes C203; assay type: in vivo
Protocol: Some of the derivatives of this invention have shown in vivo antimicrobial activity against experimentally-induced infections in laboratory animals. When two doses of test compound were administered to mice experimentally infected with S. pyogenes C203, the activity observed was measured as an ED50 value [effective dose in mg/kg to protect 50% of the test animals: see Warren Wick, et al., J. Bacteriol. 81, 233-235 (1961)].

[2] = test system: Staphylococcus aureus V41; experiment: MIC, standard agar-dilution assay; assay type: cell-based
Protocol: (§1) Certain of the derivatives are active against some gram-negative bacteria, such as Pasteurella species. The MIC's in Table II were determined by standard agar-dilution assays. The MIC's in Table III were obtained using a conventional broth-dilution microtiter test.

[3] = test system: Klebsiella pneumoniae X26; experiment: MIC, standard agar-dilution assay; assay type: cell-based; settings: Klebsiella pneumoniae, X26
Summary of the method: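 Two formats were used. Broth dilution in microtiter plates served for Pasteurella and Mycoplasma, while agar dilution served for Klebsiella.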

[4] = test system: Streptococcus pneumoniae Park I; experiment: MIC, standard agar-dilution assay; assay type: cell-based; settings: Streptococcus pneumoniae
Protocol: as §1

Escherichia coli TEM = experiment: MIC, standard agar-dilution assay; assay type: cell-based; settings: Escherichia coli
Summary of the method: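 Antibacterial activity toward the gram-negative organism Escherichia coli was assessed by conventional agar dilution. The MIC, reported in ug/mL, is the minimum compound concentration on agar that prevents growth.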

[5] = test system: Streptococcus pyogenes C203; experiment: MIC, standard agar-dilution assay; assay type: cell-based
Protocol: as §1

[6] = test system: Streptococcus Group D X66; experiment: MIC, standard agar-dilution assay; assay type: cell-based
Protocol: as §1

Escherichia coli EC14 = experiment: MIC, standard agar-dilution assay; assay type: cell-based; settings: Escherichia coli, EC14
Protocol: as §1

[7] = test system: Staphylococcus aureus X1.1; experiment: MIC, standard agar-dilution assay; assay type: cell-based; settings: Staphylococcus aureus, X1.1
Summary of the method: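 A standard agar-dilution assay was used to test compounds against the Staphylococcus aureus isolate X1.1. Bacterial growth on agar with different compound concentrations was assessed, and the minimum inhibitory concentration was recorded in ug/mL.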

[8] = test system: Klebsiella pneumoniae KAE; experiment: MIC, standard agar-dilution assay; assay type: cell-based
Summary of the method: (§2)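 Method depends on organism. Klebsiella pneumoniae was assayed on agar. Pasteurella spp. and Mycoplasma gallisepticum were assayed in broth microtiter dilution.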

[9] = test system: Streptococcus pyogenes 9960; experiment: MIC, standard agar-dilution assay; assay type: cell-based
Protocol: as §1

[10] = test system: Pasteurella multocida 68C; experiment: MIC, conventional broth-dilution microtiter test; assay type: cell-based
Summary of the method: as §2

[11] = test system: Mycoplasma gallisepticum 34159; experiment: MIC, conventional broth-dilution microtiter test; assay type: cell-based; settings: Mycoplasmoides gallisepticum
Summary of the method: as §2

Mycoplasma gallisepticum = experiment: MIC, conventional broth-dilution microtiter test; assay type: cell-based; settings: Mycoplasmoides gallisepticum
Summary of the method: as §2

[12] = test system: Pasteurella multocida 60A; experiment: MIC, conventional broth-dilution microtiter test; assay type: cell-based
Summary of the method: as §2

[13] = test system: Pasteurella multocida 40G; experiment: MIC, conventional broth-dilution microtiter test; assay type: cell-based
Summary of the method: as §2

[14] = test system: Pasteurella hemolytica 41D; experiment: MIC, conventional broth-dilution microtiter test; assay type: cell-based
Summary of the method: as §2

Streptococcus sp. 80 = experiment: MIC, conventional broth-dilution microtiter test; assay type: cell-based
Protocol: as §1

Mycoplasma synoviae = experiment: MIC, conventional broth-dilution microtiter test; assay type: cell-based; settings: Mycoplasmopsis synoviae
Summary of the method: (§3)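 Agar plates containing graded compound levels gave the Klebsiella value. Graded broth dilutions in microtiter plates gave the Pasteurella and Mycoplasma values.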

[15] = test system: Pasteurella multocida 22A; experiment: MIC, conventional broth-dilution microtiter test; assay type: cell-based
Summary of the method: as §2

[16] = test system: Pasteurella hemolytica 23C; experiment: MIC, conventional broth-dilution microtiter test; assay type: cell-based
Summary of the method: as §2

[17] = test system: Pasteurella multocida 17E; experiment: MIC, conventional broth-dilution microtiter test; assay type: cell-based
Summary of the method: as §2

[18] = test system: Pasteurella hemolytica 22C; experiment: MIC, conventional broth-dilution microtiter test; assay type: cell-based
Summary of the method: as §2

Mycoplasma hyorhinis = experiment: MIC, conventional broth-dilution microtiter test; assay type: cell-based
Summary of the method: as §3

Staphylococcus aureus = experiment: MIC, conventional broth-dilution microtiter test; assay type: cell-based
Protocol: as §1

[19] = test system: Mycoplasma gallisepticum 41313; experiment: MIC, conventional broth-dilution microtiter test; assay type: cell-based; settings: Mycoplasmoides gallisepticum
Summary of the method: as §2

Pasteurella multocida = experiment: Pasteurella infection in one-day old chicks; assay type: in vivo; settings: subcutaneous, 30 mg/kg × 2, 1 and 4 hours post-challenge
Protocol: Certain of the formula 1 compounds of this invention have also shown in vivo activity against infections induced by gram-negative bacteria. Table V summarizes the results of tests in which illustrative compounds were evaluated against a Pasteurella infection in one-day old chicks. The compounds were administered parenterally after challenge of the chicks with Pasteurella multocida (0.1 ml of a 10^-4 dilution of a twenty-hour tryptose broth culture of an avian P. multocida given subcutaneously). In these tests, unless indicated otherwise, all non-medicated infected chicks died within 24 hours of Pasteurella challenge. In the tests summarized in Table V, the compounds were administered by subcutaneous injection at a dosage of 30 mg/kg, 1 and 4 hours post-challenge of the chicks with P. multocida.

[20] = test system: Staphylococcus epidermidis EPI1; experiment: microbe, parasite or virus in culture; assay type: cell-based; settings: Staphylococcus epidermidis, EPI1
Protocol: (§4) The MIC's in Table II were determined by standard agar-dilution assays. The MIC's in Table III were obtained using a conventional broth-dilution microtiter test.

[21] = test system: Staphylococcus aureus S13E; experiment: microbe, parasite or virus in culture; assay type: cell-based
Protocol: as §4

[22] = test system: Staphylococcus epidermidis EPI2; experiment: MIC, standard agar-dilution assay; assay type: cell-based; settings: Staphylococcus epidermidis, EPI2
Protocol: as §4

[23] = test system: Haemophilus influenzae C.L.; experiment: MIC, standard agar-dilution assay; assay type: cell-based; settings: Haemophilus influenzae
Protocol: as §4

[24] = test system: Haemophilus influenzae 76; experiment: MIC, standard agar-dilution assay; assay type: cell-based
Protocol: as §4

[25] = test system: Staphylococcus aureus X400; experiment: MIC, standard agar-dilution assay; assay type: cell-based; settings: Staphylococcus aureus, X400
Protocol: as §4

SMILES: CCC1OC(=O)CC(O)C(C)C(OC2OC(C)C(O)C(N(C)C)C2O)C(CCOC(=O)Cc2ccccc2)CC(C)C(=O)C=CC(C)=CC1CO (centres unmarked) [Compound 1, 20-O-Phenylacetyl-20-dihydro-OMT]
- ED50 ([1]; C203, po, read-out: ED50 Oral): > 100 mg/kg
- ED50 ([1]; C203, sc, read-out: ED50 Subcutaneous): > 30 mg/kg
- MIC ([2]; Staphylococcus aureus, V41): 1 mg/L (≈ 1.39 µM)
- MIC [3]: 4 mg/L (≈ 5.57 µM)
- MIC [4]: 0.5 mg/L (≈ 0.696 µM)
- MIC (Escherichia coli TEM): 16 mg/L (≈ 22.3 µM)
- MIC ([5]; Streptococcus pyogenes, C203): 1 mg/L (≈ 1.39 µM)
- MIC [6]: 2 mg/L (≈ 2.79 µM)
- MIC (Escherichia coli EC14): 64 mg/L (≈ 89.1 µM)
- MIC [7]: 1 mg/L (≈ 1.39 µM)
- MIC ([8]; Klebsiella pneumoniae): > 128 mg/L
- MIC [9]; 9960: 2 mg/L (≈ 2.79 µM)
- MIC ([10]; Pasteurella multocida, 68C): 6.25 mg/L (≈ 8.71 µM)
- MIC [11]; 34159: 6.25 mg/L (≈ 8.71 µM)
- MIC (Mycoplasma gallisepticum): 3.12 mg/L (≈ 4.35 µM)
- MIC ([12]; Pasteurella multocida, 60A): 25 mg/L (≈ 34.8 µM)
- MIC ([13]; Pasteurella multocida, 40G): 25 mg/L (≈ 34.8 µM)
- MIC ([14]; Pasteurella, 41D): 12.5 mg/L (≈ 17.4 µM)
- MIC (Streptococcus sp. 80; Streptococcus, SP.80): 3.12 mg/L (≈ 4.35 µM)
- MIC (Mycoplasma synoviae): 50 mg/L (≈ 69.6 µM)
- MIC ([15]; Pasteurella multocida, 22A): 25 mg/L (≈ 34.8 µM)
- MIC ([16]; Pasteurella, 23C): 12.5 mg/L (≈ 17.4 µM)
- MIC ([17]; Pasteurella multocida, 17E): 12.5 mg/L (≈ 17.4 µM)
- MIC ([18]; Pasteurella, 22C): 25 mg/L (≈ 34.8 µM)
- MIC (Mycoplasma hyorhinis; Mycoplasma): > 50 mg/L
- MIC (Staphylococcus aureus): 3.12 mg/L (≈ 4.35 µM)
- MIC [19]; 41313: 50 mg/L (≈ 69.6 µM)
- Number of Deaths/Number Treated (Pasteurella multocida): 9/10
- MIC [20]: 0.5 mg/L (≈ 0.696 µM)
- MIC [21]: 1 mg/L (≈ 1.39 µM)
- MIC [22]: 1 mg/L (≈ 1.39 µM)
- MIC [23]: 16 mg/L (≈ 22.3 µM)
- MIC ([24]; Haemophilus influenzae, 76): 16 mg/L (≈ 22.3 µM)
- MIC [25]: 2 mg/L (≈ 2.79 µM)

SMILES: CCC1OC(=O)CC(O)C(C)C(OC2OC(C)C(O)C(N(C)C)C2O)C(CCNCc2ccccc2)CC(C)C(=O)C=CC(C)=CC1CO (centres unmarked) [Compound 4, 20-N-Benzylamino-20-deoxy-20-dihydro-OMT]
- ED50 ([1]; C203, mice, oral, mg/kg × 2, doses given 1 and 4 hours postinfection, read-out: ED50 Oral): > 100 mg/kg
- ED50 ([1]; C203, sc, mice, subcutaneous, mg/kg × 2, doses given 1 and 4 hours postinfection, read-out: ED50 Subcutaneous): 16.1 mg/kg
- MIC ([2]; agar-dilution, Staphylococcus aureus V41, Penicillin-resistant strain, read-out: MIC): 16 mg/L (≈ 23.2 µM)
- MIC [3]: 8 mg/L (≈ 11.6 µM)
- MIC [4]: 2 mg/L (≈ 2.9 µM)
- MIC (Escherichia coli TEM): 8 mg/L (≈ 11.6 µM)
- MIC ([5]; agar-dilution, Streptococcus pyogenes C203, read-out: MIC): 4 mg/L (≈ 5.81 µM)
- MIC [6]: 16 mg/L (≈ 23.2 µM)
- MIC (Escherichia coli EC14): 128 mg/L (≈ 186 µM)
- MIC [7]: 8 mg/L (≈ 11.6 µM)
- MIC ([8]; agar-dilution, Klebsiella pneumoniae KAE, read-out: MIC): > 128 mg/L
- MIC ([9]; agar-dilution, Streptococcus 9960, read-out: MIC): 32 mg/L (≈ 46.5 µM)
- MIC ([10]; broth-dilution microtiter, Pasteurella multocida 68C, read-out: MIC): 3.12 mg/L (≈ 4.53 µM)
- MIC ([11]; broth-dilution microtiter, Mycoplasma gallisepticum 34159, Resistant strain, read-out: MIC): 50 mg/L (≈ 72.6 µM)
- MIC (Mycoplasma gallisepticum; broth-dilution microtiter, Mycoplasma gallisepticum, read-out: MIC): 3.12 mg/L (≈ 4.53 µM)
- MIC ([12]; broth-dilution microtiter, Pasteurella multocida 60A, Avian isolate, read-out: MIC): 3.12 mg/L (≈ 4.53 µM)
- MIC ([13]; broth-dilution microtiter, Pasteurella multocida 40G, read-out: MIC): 6.25 mg/L (≈ 9.07 µM)
- MIC ([14]; broth-dilution microtiter, Pasteurella hemolytica 41D, read-out: MIC): 6.25 mg/L (≈ 9.07 µM)
- MIC (Streptococcus sp. 80; broth-dilution microtiter, Streptococcus sp. 80, read-out: MIC): 6.25 mg/L (≈ 9.07 µM)
- MIC (Mycoplasma synoviae; broth-dilution microtiter, Mycoplasma synoviae, read-out: MIC): 12.5 mg/L (≈ 18.1 µM)
- MIC ([15]; broth-dilution microtiter, Pasteurella multocida 22A, read-out: MIC): 12.5 mg/L (≈ 18.1 µM)
- MIC ([16]; broth-dilution microtiter, Pasteurella hemolytica 23C, read-out: MIC): 6.25 mg/L (≈ 9.07 µM)
- MIC ([17]; broth-dilution microtiter, Pasteurella multocida 17E, Bovine isolate, read-out: MIC): 3.12 mg/L (≈ 4.53 µM)
- MIC ([18]; broth-dilution microtiter, Pasteurella hemolytica 22C, read-out: MIC): 6.25 mg/L (≈ 9.07 µM)
- MIC (Mycoplasma hyorhinis; broth-dilution microtiter, Mycoplasma hyorhinis, read-out: MIC): 50 mg/L (≈ 72.6 µM)
- MIC (Staphylococcus aureus; broth-dilution microtiter, read-out: MIC): 12.5 mg/L (≈ 18.1 µM)
- MIC ([19]; broth-dilution microtiter, Mycoplasma gallisepticum 41313, Resistant strain, read-out: MIC): 50 mg/L (≈ 72.6 µM)
- Number of Deaths/Number Treated (Pasteurella multocida): 1/10
- MIC [20]: 4 mg/L (≈ 5.81 µM)
- MIC [21]: 8 mg/L (≈ 11.6 µM)
- MIC [22]: 32 mg/L (≈ 46.5 µM)
- MIC [23]: 2 mg/L (≈ 2.9 µM)
- MIC ([24]; agar-dilution, Haemophilus influenzae 76, Ampicillin-resistant strain, read-out: MIC): 2 mg/L (≈ 2.9 µM)
- MIC [25]: 32 mg/L (≈ 46.5 µM)
